In ChEMBL document CHEMBL1136694, “Aryl tetrahydropyridine inhibitors of farnesyltransferase: bioavailable analogues with improved cellular potency” (Bioorg Med Chem Lett, 2003) one finds IC50, EC50 and bioavailability data, which are given here for 13 molecules.

The target of series [1] is Geranylgeranyl transferase type I (Homo sapiens, UniProt P49354+P53609). Put plainly: In vitro inhibition of geranylgeranyltransferase-1. Type of series: protein-complex assay.
Series [2] has as its target Protein farnesyltransferase (Homo sapiens, UniProt P49354+P49356). As to the kind of experiment: In vitro inhibition of farnesyltransferase. The class given is protein-complex assay.
The target in series [3] is Protein farnesyltransferase (Mus musculus, UniProt Q61239+Q8K2I1). Put plainly: Inhibition of Ras farnesylation in Human Ha-Ras oncogene-transformed BALB/c 3T3 cells (EJ3 cells). Type of series: functional, cell-based.
Series [4] is described as follows: Compound was tested for orally bioavailable in dogs with a half life of 1.2h. The conditions noted are these: dog, in vivo, po. Type of series: ADME, organism-based, Canis lupus familiaris.
Series [5] can be described thus: Compound was tested for orally bioavailable in dogs with a half life of 0.7 hr. The class given is ADME, organism-based, Canis lupus familiaris. The settings on record: dog, in vivo, po.

Some results are limits rather than exact numbers.

For orientation: IC50 means the concentration at which inhibition is half-maximal. Read a low IC50 as higher potency. The term EC50 denotes the concentration at which the effect is half-maximal. Take `N#CC1=C(c2cccc3ccccc23)CN(C(=O)Cc2cncn2Cc2ccc(C#N)c(Cl)c2)CC1`: the IC50 in series [1] was 1300 nM; in series [2], 15 nM. The same molecule displayed an EC50 in series [3] greater than 100 nM.

The term bioavailability denotes dose-corrected exposure relative to a reference, in per cent. Regarding `Cn1cncc1C(NN1CCC(C#N)=C(c2cccc3ccccc23)C1)c1ccc(C#N)cc1` (stereo not drawn), the IC50 in series [1] was determined as 600 nM; in series [2] it was 0.5 nM. For the same molecule, the bioavailability in series [4] came to 27%. Also, the EC50 in series [3] is 0.5 nM.

Regarding `Cn1cncc1C(O)(CN1CCC(C#N)=C(c2cccc3ccccc23)C1)c1ccc(C#N)cc1` (stereo not drawn), the figures for the IC50 in series [1] and in series [2] were 540 nM and 0.48 nM, respectively. Further, in series [3], the EC50 was 4 nM.

Take `COC1=C(C#N)CCN(C(=O)Cc2cncn2Cc2ccc(C#N)c(-c3cccc4ccccc34)c2)C1`: the results for the IC50 in series [1] and in series [2] were 2700 nM and 1.4 nM, respectively. For the same molecule, the EC50 in series [3] is greater than 100 nM.

On to `Cn1cncc1CN(Cc1ccc(Cl)c(Cl)c1)C(=O)N1CCC(C#N)=C(c2cccc3ccccc23)C1`, for which the figures for the IC50 in series [1] and in series [2] were 1500 nM and 20 nM, respectively.

For `Cn1cncc1CN(Cc1cccc(C#N)c1)C(=O)N1CCC(C#N)=C(c2cccc3ccccc23)C1`, the IC50 in series [1] came to 10000 nM; in series [2] it was 59 nM.

Take `Cn1cncc1CN(Cc1ccc(C#N)c(Br)c1)C(=O)N1CCC(C#N)=C(c2cccc3ccccc23)C1`: the IC50 is 1400 nM in series [1] and 3.1 nM in series [2]. For the same molecule, the EC50 in series [3] is greater than 1 nM.

For `N#CC1=C(c2cccc3ccccc23)CN(C(=O)Cc2cncn2Cc2ccc(Cl)cc2)CC1`, the IC50 in series [1] was greater than 10000 nM; in series [2], 35 nM. The same molecule came in with an EC50 in series [3] greater than 100 nM.

For `N#CC1=C(c2cccc3ccccc23)CN(C(=O)CCc2cncn2Cc2ccc(C#N)cc2)CC1`, the IC50 in series [1] turned out to be 1300 nM; in series [2], 1.4 nM. The molecule also came in with a concentration for a half-maximal effect (EC50) in series [3] of 28 nM.

For `CN(Cc1ccc(C#N)cc1)[C@H](Cc1cncn1C)C(=O)N1CCC(C#N)=C(c2cccc3ccccc23)C1`, the values for the IC50 in series [1] and in series [2] were 1600 nM and 0.92 nM, respectively. Further, in series [3], the EC50 is greater than 100 nM.

In the case of `N#CC1=C(c2cccc3ccccc23)CN(C(=O)Cc2cncn2Cc2ccc(C#N)cc2)CC1`, the bioavailability in series [5] was found to be 10%. Further, in series [1], the IC50 came to 4500 nM. In series [3], this molecule showed an EC50 of 3.9 nM.

Turning to `Cn1cncc1C(c1ccc(C#N)cc1)N1CCC(C#N)=C(c2cccc3ccccc23)C1` (stereo not drawn), the IC50 in series [1] stood at 161000 nM; in series [2] it was 0.5 nM. Besides, in series [3], the midpoint of the response, the EC50, lay at 31 nM.

For `Cn1cncc1CN(Cc1ccc(C#N)cc1)C(=O)N1CCC(C#N)=C(c2cccc3ccccc23)C1`, the IC50 in series [1] is 4000 nM; in series [2], 3.5 nM. In series [3], this molecule came in with an EC50 of 97 nM.
